Key:
Type in all cases: ADME, organism-based
Conditions in all cases: in vivo
[1] = Tmax in CD-1 mouse at 5 mg/kg, po administered as single dose by LC-MS/MS analysis
[2] = Half life in CD-1 mouse at 5 mg/kg, po administered as single dose by LC-MS/MS analysis
[3] = Cmax in CD-1 mouse at 5 mg/kg, po administered as single dose by LC-MS/MS analysis; design: dose 5 mg/kg, route oral
[4] = AUC (0 to t) in CD-1 mouse at 5 mg/kg, po administered as single dose by LC-MS/MS analysis
[5] = AUC (0 to infinity) in CD-1 mouse at 5 mg/kg, po administered as single dose by LC-MS/MS analysis; design: dose 5 mg/kg, route oral, time infinity

[2H]c1nc(-c2cc(NC(=O)c3ccc(S(C)(=O)=O)cc3Cl)ccc2Cl)c([2H])c([2H])c1[2H]
Tmax [1]: 1 h | half-life [2]: 8.55 h | Cmax [3]: 1870 ng/mL | AUC(0-t) [4]: 6510 ng·h/mL | AUC(0-inf) [5]: 17100 ng·h/mL

[2H]c1cc(Cl)c(-c2ccccn2)c([2H])c1NC(=O)c1ccc(S(C)(=O)=O)cc1Cl
Tmax [1]: 1 h | half-life [2]: 2.82 h | Cmax [3]: 1610 ng/mL | AUC(0-t) [4]: 6280 ng·h/mL | AUC(0-inf) [5]: 8290 ng·h/mL

[2H]c1cc(Cl)c(-c2nc([2H])c([2H])c([2H])c2[2H])c([2H])c1NC(=O)c1ccc(S(C)(=O)=O)cc1Cl
Tmax [1]: 1 h | half-life [2]: 2.56 h | Cmax [3]: 972 ng/mL | AUC(0-t) [4]: 6110 ng·h/mL | AUC(0-inf) [5]: 6110 ng·h/mL

CS(=O)(=O)c1ccc(C(=O)Nc2ccc(Cl)c(-c3ccccn3)c2)c(Cl)c1 [VISMODEGIB]
Tmax [1]: 1 h | half-life [2]: 5.62 h | Cmax [3]: 854 ng/mL | AUC(0-t) [4]: 4050 ng·h/mL | AUC(0-inf) [5]: 7660 ng·h/mL
